The values that follow are results of earlier work, collected in patent US20120258972A1, “Composition and Methods for Treating Hair Loss” (priority 2011, published 2012).

Molecules are shown by their SMILES.

One series deals with male pattern hair loss. Particulars: oral dutasteride 0.5 mg and 2.5 mg/day; 12 and 24 weeks.
Series [1] deals with T1, type I isozyme of 5-alpha reductase (Homo sapiens, UniProt P18405).
T1 sequence (P18405 1-259): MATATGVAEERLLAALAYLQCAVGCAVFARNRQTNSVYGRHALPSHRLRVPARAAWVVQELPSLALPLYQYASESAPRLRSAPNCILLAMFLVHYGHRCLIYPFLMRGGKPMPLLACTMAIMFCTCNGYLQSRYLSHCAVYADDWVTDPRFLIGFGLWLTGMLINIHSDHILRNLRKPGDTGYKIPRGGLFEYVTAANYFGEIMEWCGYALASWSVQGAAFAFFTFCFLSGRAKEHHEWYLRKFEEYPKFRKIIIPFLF

In series [2] the test system is serum dihydrotestosterone. Particulars: oral.
Series [3] addresses T2, Type II isozyme of 5-alpha reductase (Homo sapiens, UniProt P31213).
T2 sequence (P31213 1-254): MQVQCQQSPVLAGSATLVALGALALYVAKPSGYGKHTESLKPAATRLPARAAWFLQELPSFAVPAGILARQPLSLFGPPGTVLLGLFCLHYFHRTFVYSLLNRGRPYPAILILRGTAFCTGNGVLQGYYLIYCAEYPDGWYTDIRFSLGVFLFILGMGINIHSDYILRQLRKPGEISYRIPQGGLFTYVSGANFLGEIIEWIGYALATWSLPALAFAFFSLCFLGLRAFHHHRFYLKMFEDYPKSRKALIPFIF

For series [4], the system named is men with androgenic alopecia. Particulars: ketoconazole shampoo 2% versus 2% minoxidil regimen.
In the next series the test system is C.3H/HeN mice. Particulars: topical application.

For the compound `C[C@]12C=CC(=O)N[C@@H]1CC[C@@H]1[C@@H]2CC[C@]2(C)[C@@H](C(=O)Nc3cc(C(F)(F)F)ccc3C(F)(F)F)CC[C@@H]12` [dutasteride], the “Hair count compared with 5 mg/day finasteride” value in the series with male pattern hair loss is reported as “superior hair count”. Further, in series [1], the “Potency relative to finasteride at inhibiting the type I isozyme of 5-alpha reductase” value was “more than 100 times”. In addition, in series [2], the “Decrease of serum dihydrotestosterone” value is reported as “up to 90%”. Further, the “Potency relative to finasteride at inhibiting the Type II isozyme of 5-alpha reductase” value in series [3] was 3 times.

Turning to `CC(=O)N1CCN(c2ccc(OCC3COC(Cn4ccnc4)(c4ccc(Cl)cc4Cl)O3)cc2)CC1` (stereo not shown) [ketoconazole], the “Hair density, size, and proportion of anagen follicles” value in series [4] is “improved almost similarly”. The “Effect on hair growth in mice” value in the series with C.3H/HeN mice was “stimulatory effect on hair growth”.

Take `CC(C)(C)NC(=O)[C@H]1CC[C@H]2[C@@H]3CC[C@H]4NC(=O)C=C[C@]4(C)[C@H]3CC[C@]12C` [finasteride]: in series [2], the “Decrease of serum dihydrotestosterone” value is recorded as “about 70%”.
